Experimental data reported in patent US12383545B1, “Treatment of migraine” (priority 2018, dated 2025).

Tested on: patients with migraine (4 to 14 migraine/probable migraine headache days)
Experiment: Example 5: randomized double-blind placebo-controlled 12-week dose-regimen study (QD and BID), migraine/probable migraine (MPM) headache days efficacy
Format: in vivo, human
Conditions: for At Least 50% Reduction in Mean Monthly MPM Headache Days, Non-responders / At Least 50% Reduction in Mean Monthly MPM Headache Days, Odds ratio vs. Placebo / At Least 50% Reduction in Mean Monthly MPM Headache Days, Responders / Change from Baseline in Mean Monthly Acute Medication Use Days, CFB MMRM LS Mean / Change from Baseline in Mean Monthly Acute Medication Use Days, CGP vs. Placebo LSMD / Change from Baseline in Mean Monthly Headache Days, CFB MMRM LS Mean / Change from Baseline in Mean Monthly Headache Days, CGP vs. Placebo LSMD / Change from Baseline in Mean Monthly MPM Headache Days, CFB MMRM LS Mean / Change from Baseline in Mean Monthly MPM Headache Days, CGP vs. Placebo LSMD: across the 12-Week Treatment Period, mITT Population; for Non-responders (at least 100% reduction in mean monthly MPM headache days not met), (%) / Non-responders (at least 100% reduction in mean monthly MPM headache days not met), n / Odds ratio vs. Placebo, at least 100% reduction in mean monthly MPM headache days / Responders (at least 100% reduction in mean monthly MPM headache days), (%) / Responders (at least 100% reduction in mean monthly MPM headache days), n: Weeks 1-4, mITT population
Procedure: In a multicenter, randomized, double-blind, placebo-controlled, parallel-group study designed to evaluate the efficacy, safety, and tolerability of multiple doses and doses regimens of atogepant for the prevention of migraine. The patients were randomized (2:1:2:1:2:1) to 1 of 6 treatment groups: placebo, atogepant 10 mg QD, atogepant 30 mg QD, atogepant 30 mg BID, atogepant 60 mg QD, and atogepant 60 mg BID.
This study consisted of a 4-week screening and baseline period and a 12-week double-blind treatment period, which was followed by a 4-week safety follow-up period. Total study duration is 20-weeks.
To be randomized, eligible patients had to be 18 to 75 years of age (inclusive), have a history of migraine with or without aura for at least 1 year consistent with a diagnosis according to the International Classification of Headache Disorders criteria, 3rd edition, beta version, have experienced 4 to 14 migraine/probable migraine headache days and <15 headache days in the 28-day baseline period. Patients who had clinically significant hematologic, endocrine, cardiovascular, cerebrovascular, pulmonary, renal, hepatic, gastrointestinal, or neurologic disease were excluded from the study.
A total of 834 patients were randomized to double-blind treatment (ITT population), and 825 patients took at least 1 dose of double-blind IP (safety population). […] The primary efficacy variable was the change from baseline in mean monthly migraine/probable migraine headache days across the 12-week treatment period. The secondary efficacy variables were the change from baseline in mean monthly headache days across the 12-week treatment period, proportion of patients with at least a 50% reduction in mean monthly migraine/probable migraine headache days across the 12-week treatment period, and the change from baseline in mean monthly acute medication use days across the 12-week treatment period.

`C[C@@H]1[C@H](c2c(F)ccc(F)c2F)C[C@H](NC(=O)c2cnc3c(c2)C[C@@]2(C3)C(=O)Nc3ncccc32)C(=O)N1CC(F)(F)F` [atogepant] was tested, and the “At Least 50% Reduction in Mean Monthly MPM Headache Days, Non-responders” value (“At Least 50% Reduction … Non-responders” for short) (Atogepant 10 mg QD) was 39 (42.4) n (%), the “At Least 50% Reduction in Mean Monthly MPM Headache Days, Odds ratio vs. Placebo” value (from here on “At Least 50% Reduction … Odds ratio vs. Placebo”) (Atogepant 10 mg QD) was 1.50 and the “At Least 50% Reduction in Mean Monthly MPM Headache Days, Responders” value (Atogepant 10 mg QD) was 53 (57.6) n (%). For the same molecule, the “Change from Baseline in Mean Monthly Acute Medication Use Days, CFB MMRM LS Mean” value (Atogepant 10 mg QD) was -3.71 days, the “Change from Baseline in Mean Monthly Acute Medication Use Days, CGP vs. Placebo LSMD” value (Atogepant 10 mg QD) was -1.30 days and the “Change from Baseline in Mean Monthly Headache Days, CFB MMRM LS Mean” value (Atogepant 10 mg QD) was -4.31 days. The “Change from Baseline in Mean Monthly Headache Days, CGP vs. Placebo LSMD” value (Atogepant 10 mg QD) was -1.38 days, the “Change from Baseline in Mean Monthly MPM Headache Days, CFB MMRM LS Mean” value (Atogepant 10 mg QD) was -4.00 days and the “Change from Baseline in Mean Monthly MPM Headache Days, CGP vs. Placebo LSMD” value (Atogepant 10 mg QD) was -1.15 days. The “At Least 50% Reduction … Non-responders” value (Atogepant 30 mg BID) was 33 (41.8) n (%), the “At Least 50% Reduction … Odds ratio vs. Placebo” value (Atogepant 30 mg BID) was 1.83 and the “At Least 50% Reduction in Mean Monthly MPM Headache Days, Responders” value (Atogepant 30 mg BID) was 46 (58.2) n (%). For the same molecule, the “Change from Baseline in Mean Monthly Acute Medication Use Days, CFB MMRM LS Mean” value (Atogepant 30 mg BID) was -3.77 days, the “Change from Baseline in Mean Monthly Acute Medication Use Days, CGP vs. Placebo LSMD” value (Atogepant 30 mg BID) was -1.35 days and the “Change from Baseline in Mean Monthly Headache Days, CFB MMRM LS Mean” value (Atogepant 30 mg BID) was -4.23 days. For the same molecule, the “Change from Baseline in Mean Monthly Headache Days, CGP vs. Placebo LSMD” value (Atogepant 30 mg BID) was -1.30 days, the “Change from Baseline in Mean Monthly MPM Headache Days, CFB MMRM LS Mean” value (Atogepant 30 mg BID) was -4.23 days and the “Change from Baseline in Mean Monthly MPM Headache Days, CGP vs. Placebo LSMD” value (Atogepant 30 mg BID) was -1.39 days. For the same molecule, the “At Least 50% Reduction … Non-responders” value (Atogepant 30 mg QD) was 85 (46.7) n (%), the “At Least 50% Reduction … Odds ratio vs. Placebo” value (Atogepant 30 mg QD) was 1.46 and the “At Least 50% Reduction in Mean Monthly MPM Headache Days, Responders” value (Atogepant 30 mg QD) was 97 (53.3) n (%). For the same molecule, the “Change from Baseline in Mean Monthly Acute Medication Use Days, CFB MMRM LS Mean” value (Atogepant 30 mg QD) was -3.86 days, the “Change from Baseline in Mean Monthly Acute Medication Use Days, CGP vs. Placebo LSMD” value (Atogepant 30 mg QD) was -1.44 days and the “Change from Baseline in Mean Monthly Headache Days, CFB MMRM LS Mean” value (Atogepant 30 mg QD) was -4.17 days. The “Change from Baseline in Mean Monthly Headache Days, CGP vs. Placebo LSMD” value (Atogepant 30 mg QD) was -1.24 days, the “Change from Baseline in Mean Monthly MPM Headache Days, CFB MMRM LS Mean” value (Atogepant 30 mg QD) was -3.76 days and the “Change from Baseline in Mean Monthly MPM Headache Days, CGP vs. Placebo LSMD” value (Atogepant 30 mg QD) was -0.91 days. For the same molecule, the “At Least 50% Reduction … Non-responders” value (Atogepant 60 mg BID) was 33 (37.9) n (%), the “At Least 50% Reduction … Odds ratio vs. Placebo” value (Atogepant 60 mg BID) was 2.03 and the “At Least 50% Reduction in Mean Monthly MPM Headache Days, Responders” value (Atogepant 60 mg BID) was 54 (62.1) n (%). For the same molecule, the “Change from Baseline in Mean Monthly Acute Medication Use Days, CFB MMRM LS Mean” value (Atogepant 60 mg BID) was -3.64 days, the “Change from Baseline in Mean Monthly Acute Medication Use Days, CGP vs. Placebo LSMD” value (Atogepant 60 mg BID) was -1.22 days and the “Change from Baseline in Mean Monthly Headache Days, CFB MMRM LS Mean” value (Atogepant 60 mg BID) was -4.32 days. The “Change from Baseline in Mean Monthly Headache Days, CGP vs. Placebo LSMD” value (Atogepant 60 mg BID) was -1.39 days, the “Change from Baseline in Mean Monthly MPM Headache Days, CFB MMRM LS Mean” value (Atogepant 60 mg BID) was -4.14 days and the “Change from Baseline in Mean Monthly MPM Headache Days, CGP vs. Placebo LSMD” value (Atogepant 60 mg BID) was -1.29 days. The “At Least 50% Reduction … Non-responders” value (Atogepant 60 mg QD) was 85 (48.0) n (%), the “At Least 50% Reduction … Odds ratio vs. Placebo” value (Atogepant 60 mg QD) was 1.42 and the “At Least 50% Reduction in Mean Monthly MPM Headache Days, Responders” value (Atogepant 60 mg QD) was 92 (52.0) n (%). For the same molecule, the “Change from Baseline in Mean Monthly Acute Medication Use Days, CFB MMRM LS Mean” value (Atogepant 60 mg QD) was -3.53 days, the “Change from Baseline in Mean Monthly Acute Medication Use Days, CGP vs. Placebo LSMD” value (Atogepant 60 mg QD) was -1.11 days and the “Change from Baseline in Mean Monthly Headache Days, CFB MMRM LS Mean” value (Atogepant 60 mg QD) was -3.86 days. For the same molecule, the “Change from Baseline in Mean Monthly Headache Days, CGP vs. Placebo LSMD” value (Atogepant 60 mg QD) was -0.94 days, the “Change from Baseline in Mean Monthly MPM Headache Days, CFB MMRM LS Mean” value (Atogepant 60 mg QD) was -3.55 days and the “Change from Baseline in Mean Monthly MPM Headache Days, CGP vs. Placebo LSMD” value (Atogepant 60 mg QD) was -0.70 days. For the same molecule, the “Non-responders (at least 100% reduction in mean monthly MPM headache days not met), (%)” value (Atogepant 10 mg QD (N = 92)) was “(81.5) %”, the “Non-responders (at least 100% reduction in mean monthly MPM headache days not met), n” value (Atogepant 10 mg QD (N = 92)) was 75 and the “Odds ratio vs. Placebo, at least 100% reduction in mean monthly MPM headache days” value (Atogepant 10 mg QD (N = 92)) was 6.39. For the same molecule, the “Responders (at least 100% reduction in mean monthly MPM headache days), (%)” value (Atogepant 10 mg QD (N = 92)) was “(18.5) %”, the “Responders (at least 100% reduction in mean monthly MPM headache days), n” value (Atogepant 10 mg QD (N = 92)) was 17 and the “Non-responders (at least 100% reduction in mean monthly MPM headache days not met), (%)” value (Atogepant 30 mg BID (N = 79)) was “(83.5) %”. The “Non-responders (at least 100% reduction in mean monthly MPM headache days not met), n” value (Atogepant 30 mg BID (N = 79)) was 66, the “Odds ratio vs. Placebo, at least 100% reduction in mean monthly MPM headache days” value (Atogepant 30 mg BID (N = 79)) was 5.23 and the “Responders (at least 100% reduction in mean monthly MPM headache days), (%)” value (Atogepant 30 mg BID (N = 79)) was “(16.5) %”. For the same molecule, the “Responders (at least 100% reduction in mean monthly MPM headache days), n” value (Atogepant 30 mg BID (N = 79)) was 13, the “Non-responders (at least 100% reduction in mean monthly MPM headache days not met), (%)” value (Atogepant 30 mg QD (N = 182)) was “(80.2) %” and the “Non-responders (at least 100% reduction in mean monthly MPM headache days not met), n” value (Atogepant 30 mg QD (N = 182)) was 146. The “Odds ratio vs. Placebo, at least 100% reduction in mean monthly MPM headache days” value (Atogepant 30 mg QD (N = 182)) was 7.05, the “Responders (at least 100% reduction in mean monthly MPM headache days), (%)” value (Atogepant 30 mg QD (N = 182)) was “(19.8) %” and the “Responders (at least 100% reduction in mean monthly MPM headache days), n” value (Atogepant 30 mg QD (N = 182)) was 36.
